For data set [1], the target named is aminopeptidase (Sus scrofa, UniProt P15145). As to conditions: 37° C., up to 24 h.
Description: The stability of SEQ ID NO:3 in the presence of several mammalian digestive enzymes was determined. SEQ ID NO:3 was exposed to a variety of in vitro conditions including digestive enzymes and low ph environments designed to simulate gastric fluid. SEQ ID NO:3 was incubated with chymotrypsin, trypsin, pepsin, aminopeptidase, carboxypeptidase A, and simulated gastric fluid (sgf) at ph 1.0. Samples were collected at 0, 3, and 24 h for all conditions except pepsin digestion and the SGF. For the latter two conditions, samples were obtained at 0, 1, and 3 h. Negative control samples were prepared for initial and final time points. A separate, positive activity control was run in parallel to SEQ ID NO:3. All samples were analyzed by LC/MS
500 μL samples of 0.01 mg/mL SEQ ID NO:3 and chemically synthesized SEQ ID NO:4 (wild type ST; positive control) were prepared in the aminopeptidase reaction buffer (5 mM Tris-HCl, 5 mM MgCl2, pH 7.5) in 2 mL eppendorf tubes. 5 μL of a 5 mg/mL Bestatin hydrochloride (BioChemika, 08170; an aminopeptidase inhibitor) stock was added to each control sample (0 and 24 h), for a final concentration of 0.05 mg/mL. All control and test samples (0, 3, and 24 h) were incubated at 37° C. for 5 min. […] These standards were used to generate a standard curve for quantification of samples. […]
The subject of data set [2] is healthy males and postmenopausal females. Description: single oral dose study in humans, bowel habits (BSFS). In kind it is in vivo, human. The protocol:
Single doses of 30, 100, 300, 1000 or 3000 μg of chemically synthesized SEQ ID NO:3 were given to 30 healthy males and postmenopausal females. At each dose level (100 μg was done twice) SEQ ID NO:3 or placebo (vehicle) was administered orally in 5.0 mL 50 mM phosphate buffer (pH 6.0) plus 3×20 mL water rinses and 175 mL water after at least a 10-hour fast. In each dosing group, subjects were randomized to receive either placebo (1 subject) or SEQ ID NO:3 (3-4 subjects). Bowel habits (including Bristol Stool Form Scale score (BSFS; FIG. 14a), stool frequency, and stool weight) were evaluated for each collected bowel movement 48 hours prior to dose and up to approximately 48 hours postdose.

Data set [3] in a line: stability in simulated gastric fluid (SGF) pH 1. In kind it is in vitro ADME. As to conditions: pH 1, 37° C., up to 3 h. The protocol:
All samples were analyzed by LC/MS
The reference control sample was diluted 10-fold (1000 μL volume) in distilled water for a final concentration of 10 μM and chilled on ice. At each time point, samples were diluted 10-fold (1000 μL volume) in distilled water for an expected concentration of 10 μM, and chilled on ice, until analysis.

Data set [4] deals with WT and GC-C KO mice. Description: TNBS visceral hypersensitivity model in WT and GC-C KO mice. It counts as in vivo, mouse. The settings on record: oral 0.01 μg/kg, FIG. 7d. As to the method: TNBS induced visceral hypersensitivity was assessed in WT and GC-C KO mice. Two groups (WT and GC-C KO) of male mice (22-25 g) were surgically prepared for electromyographic (EMG) recordings. Three electrodes were implanted in the striated muscles of the abdomen for EMG recording of abdominal contractions. Colorectal distension (CRD) was performed with a balloon inflated by 10s steps of 0.02 ml from 0 to 0.12 ml. Under basal conditions mice were submitted to control CRD (time 0) followed by oral administration of SEQ ID NO:3 (0.01 and 0.3 μg/kg) or vehicle only (distilled water, 1 ml) at 3 hours. One hour post dosing the CRD procedure was repeated. Abdominal EMG contractile response to colorectal distension in basal conditions in both WT and GC-C KO mice (12-14 mice per group) was determined in the absence of vehicle and SEQ ID NO:3, and the mean+/−standard error of the mean (SEM) is graphically depicted in FIG. 7c.
For TNBS induced visceral hypersensitivity conditions, mice were submitted to control CRD (time 0) and TNBS (20 mg/kg) was administered at 3 days. […] The effect of SEQ ID NO:3 ([…]) on abdominal response to colorectal distension after TNBS in WT and GC-C KO mice (12-14 per group) at a volume distension of […] was determined and the mean+/−standard error of the mean (SEM) is graphically depicted in FIG. 7d.

In data set [5] the target is T1, GC-C receptors on the cell surface of human colonic cells (T84 cells) (Homo sapiens, UniProt P25092).
T1 construct: host or cells: T84 cells (whole cells in suspension)
T1 sequence (P25092 24-1073): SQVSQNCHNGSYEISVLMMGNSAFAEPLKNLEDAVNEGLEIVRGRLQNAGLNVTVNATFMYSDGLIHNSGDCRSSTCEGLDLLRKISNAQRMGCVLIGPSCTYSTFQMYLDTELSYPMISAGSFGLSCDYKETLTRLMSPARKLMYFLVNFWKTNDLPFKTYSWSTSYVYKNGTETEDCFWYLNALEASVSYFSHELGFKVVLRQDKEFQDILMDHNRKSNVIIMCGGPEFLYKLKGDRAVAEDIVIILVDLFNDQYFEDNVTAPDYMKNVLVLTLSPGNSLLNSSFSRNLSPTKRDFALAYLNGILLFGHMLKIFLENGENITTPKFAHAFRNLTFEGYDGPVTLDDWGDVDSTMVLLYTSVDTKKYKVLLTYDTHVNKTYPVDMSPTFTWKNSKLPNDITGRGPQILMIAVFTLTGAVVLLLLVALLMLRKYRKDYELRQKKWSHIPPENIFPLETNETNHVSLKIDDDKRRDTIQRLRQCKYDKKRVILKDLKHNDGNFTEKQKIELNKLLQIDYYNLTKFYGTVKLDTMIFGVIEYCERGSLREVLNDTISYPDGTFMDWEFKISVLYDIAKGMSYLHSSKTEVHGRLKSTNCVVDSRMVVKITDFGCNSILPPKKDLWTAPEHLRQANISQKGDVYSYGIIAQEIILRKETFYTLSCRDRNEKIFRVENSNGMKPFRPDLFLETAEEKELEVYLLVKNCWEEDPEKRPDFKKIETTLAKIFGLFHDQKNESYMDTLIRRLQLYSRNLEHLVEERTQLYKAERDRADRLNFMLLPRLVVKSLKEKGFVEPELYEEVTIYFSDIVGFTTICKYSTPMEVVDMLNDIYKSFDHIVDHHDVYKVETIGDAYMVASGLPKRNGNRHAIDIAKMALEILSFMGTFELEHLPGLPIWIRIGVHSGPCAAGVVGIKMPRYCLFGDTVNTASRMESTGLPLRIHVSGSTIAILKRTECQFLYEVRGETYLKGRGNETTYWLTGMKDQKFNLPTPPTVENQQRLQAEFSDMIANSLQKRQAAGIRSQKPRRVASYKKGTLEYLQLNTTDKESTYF
Description: competitive radioligand-binding assay on T84 cells. The protocol: The radiolabeled tracer used in these experiments was ^125I-SEQ ID NO:7. To determine binding constants, competitive inhibition of binding was used. T84 cells were cultured in T-150 plastic flasks in DMEM and Ham's F-12 medium containing 5% fetal bovine serum. Monolayers at 60-70% confluency (approximately 10^7 cells) were collected by gentle scraping followed by centrifugation, and washed twice in 50 mL of phosphate-buffered saline (PBS). The cells were resuspended in 1 mL DMEM containing 20 mM […] (Hepes), pH 7.0 and 0.5% bovine serum albumin (BSA). T84 cells were incubated with a constant amount of ^125I-SEQ ID NO:7 containing various concentrations of cold competitor. Free ^125I-SEQ ID NO:7 was separated from bound tracer by rapid suction filtration. The binding reactions were carried out in 1.5 mL microfuge tubes in 0.24 mL of DMEM/20 mM Hepes pH 7.0/0.5% BSA containing: 2.5×10^5 T84 cells (0.25 mg protein), 200,000 cpm ^125I-SEQ ID NO:7 (41 fmol, […]), and 0.01 to 1,000 nM competitor. Binding assays at pH 5.0 were done in DMEM/20 mM 2-(N-morpholino) ethanesulfonic acid (Mes), pH 5.0. Binding assays in pH 8.0 were done in DMEM/20 mM Hepes/50 mM sodium bicarbonate pH 8.0. One sample contained no competitor (B0) and another contained no cells. After incubation at 37° C. for 1 h, the reaction mixtures were applied to Whatman GF/B glass-fiber filters by suction filtration. The filters were then rinsed with 10 mL ice-cold PBS buffer, inserted into plastic tubes, and added to 2 mL scintillation fluid. Radioactivity was measured in a LS 6500 liquid scintillation counter (Beckman-Coulter). The percent bound in each sample is calculated by the equation:
% B/B0=(sample cpm−no cells cpm)×100/(B0 cpm−no cells cpm)
Competitive radioligand-binding curves were generated using the Graphpad PRISM™ computer program. […] The apparent dissociation equilibrium constant (Ki) for each competitor was obtained from the IC50 values and the previously reported estimate of the dissociation constant for the radioligand, Kd≈15 nM (Hamra et al. 1997 PNAS 2705-10) and the method of Cheng and Prusoff 1973 Biochem Pharmacol 22:3099-108. Using a two site model, high and low affinity-binding sites were identified on T84 cells (Ki1 and Ki2) for all the test agents. At pH 7.0. for SEQ ID NO:3 Ki1 ranged from 0.89-1.23 nM and Ki2 ranged from 88.9-156 nM.

Data set [6] deals with suckling mice. Description: suckling mouse model of intestinal secretion (SuMi assay). In kind it is in vivo. As to conditions: dose response, FIG. 5a, 5b. As to the method: In this model a test compound is administered to suckling mice that are between 7 and 9 days old. After the mice are sacrificed, the gastrointestinal tract from the stomach to the cecum is dissected (“guts”). The remains (“carcass”) as well as the guts are weighed and the ratio of guts to carcass weight is calculated. If the ratio is above 0.09, one can conclude that the test compound increases intestinal secretion. […] The effect of Zelnorm® was also studied.

Each structure is given as a SMILES string. Read-outs that look alike come from different tables or passages of the source. Where a SMILES comes first, the peptide text is derived from it. Bridges are numbered along the chain shown (N, C = ends).

Sequence of aminopeptidase (P15145 whole entry): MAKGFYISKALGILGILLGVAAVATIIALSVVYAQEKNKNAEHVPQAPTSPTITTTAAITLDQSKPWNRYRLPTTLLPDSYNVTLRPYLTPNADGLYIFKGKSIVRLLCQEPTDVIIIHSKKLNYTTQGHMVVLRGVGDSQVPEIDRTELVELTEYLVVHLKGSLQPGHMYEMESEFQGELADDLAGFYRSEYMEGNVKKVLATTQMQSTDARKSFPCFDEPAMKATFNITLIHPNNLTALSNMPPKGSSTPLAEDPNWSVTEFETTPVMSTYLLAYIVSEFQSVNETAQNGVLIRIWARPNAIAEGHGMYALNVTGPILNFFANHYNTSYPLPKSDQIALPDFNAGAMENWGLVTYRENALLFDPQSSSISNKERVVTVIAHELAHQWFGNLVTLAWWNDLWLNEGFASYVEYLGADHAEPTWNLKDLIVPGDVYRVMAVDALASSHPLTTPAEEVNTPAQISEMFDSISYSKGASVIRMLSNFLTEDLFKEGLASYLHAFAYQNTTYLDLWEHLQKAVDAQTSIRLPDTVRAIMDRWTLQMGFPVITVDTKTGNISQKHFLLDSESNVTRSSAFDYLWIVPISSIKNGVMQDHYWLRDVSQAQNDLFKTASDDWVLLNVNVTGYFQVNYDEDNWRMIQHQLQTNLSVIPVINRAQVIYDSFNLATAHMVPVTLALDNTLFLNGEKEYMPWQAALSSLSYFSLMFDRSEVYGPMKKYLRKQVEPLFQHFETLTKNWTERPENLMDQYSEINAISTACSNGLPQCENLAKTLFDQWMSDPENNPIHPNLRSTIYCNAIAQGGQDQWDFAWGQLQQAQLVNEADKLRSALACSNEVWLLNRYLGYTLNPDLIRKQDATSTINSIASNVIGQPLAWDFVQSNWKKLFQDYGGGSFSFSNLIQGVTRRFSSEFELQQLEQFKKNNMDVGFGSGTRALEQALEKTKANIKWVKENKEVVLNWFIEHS

On to `C[C@@H]1NC(=O)[C@@H]2CCCN2C(=O)[C@H](CC(N)=O)NC(=O)[C@@H]2CSSC[C@H](N)C(=O)N[C@H]3CSSC[C@H](NC1=O)C(=O)N[C@@H]([C@@H](C)O)C(=O)NCC(=O)N[C@H](C(=O)N[C@@H](Cc1ccc(O)cc1)C(=O)O)CSSC[C@H](NC(=O)[C@H](Cc1ccc(O)cc1)NC(=O)[C@H](CCC(=O)O)NC3=O)C(=O)N2` [SEQ ID NO:3] (H-CCEYCCNPACTGCY-OH; disulfide 1-6, 2-10, 5-13; N-terminus and C-terminus assumed), for which the “Cleavage of SEQ ID NO: 3 by proteolytic substance” value in data set [1] and in data set [3] was “not detectable” each time. In addition, the “percent of subjects with at least a 2-point increase in BSFS consistency score” value in data set [2] (1000 μg dose group, mean pre-dose compared to peak 48 hours post-dose, FIG. 14c) is “highest percent of subjects”. For the same compound, in data set [2] (single oral dose 30-3000 μg), the “BSFS post-dose scores versus dose” value is “Higher BSFS post-dose scores correlated with a higher dose”. Also, the “maximum BSFS score” value in data set [2] (single oral dose 30-3000 μg, FIG. 14b) is reported as “increase”. Besides, the “TNBS induced hypersensitivity to CRD” value was “A similar effect was not observed” in data set [4] (GC-C KO mice) and “reduces the TNBS induced hypersensitivity to CRD” in data set [4] (WT mice). In data set [5] (pH 5, 7 and 8), the “effect of pH on binding to the high affinity site, Ki1” value is given as “not affected by pH”. In addition, the Ki in data set [5] (pH 5.0, T84 cells, read-out: Ki1 (high affinity site)) came out at 1.38 nM; in data set [5] (pH 5.0, T84 cells, read-out: Ki2 (low affinity site)) it was 17 nM; in data set [5] (pH 8.0, T84 cells, read-out: Ki1 (high affinity site)), 0.6 nM; in data set [5] (pH 8.0, T84 cells, read-out: Ki2 (low affinity site)) it was 94.4 nM. In data set [6], the “intestinal secretion (ratio of guts to carcass weight)” value was “increase intestinal secretion”.

Values taken from patent US20090305993A1, “METHODS AND COMPOSITION FOR THE TREATMENT OF GASTROINTESTINAL DISORDERS” (IRONWOOD PHARMACEUTICALS, INC., priority 2006, published 2009).
